Test results as given in paper PMC8277899, “A novel RyR1-selective inhibitor prevents and rescues sudden death in mouse models of malignant hyperthermia and heat stroke” (Nature Communications, 2021).
“And” between values parts separate entries of the source, which are not always exact repeats. Equal values may be shown once. Read-outs that look alike come from different tables or passages of the source.

Test system: soleus muscles from R2509C mice
Assay: Muscle force in vitro, soleus from R2509C mice (caffeine and heat contracture, twitch, tetanus)
Format: cell-based, mouse
Settings: for inhibition at 3 µM: Mus musculus, soleus (WT and R2509C groups)

SMILES: CCCCCCCCn1cc(C(=O)O)c(=O)c2cc3c(cc21)OCO3 [Cpd1, 6,7-(methylenedioxy)-1-octyl-4-quinolone-3-carboxylic acid]
- inhibition at 3 µM (at 100 Hz, read-out: inhibition of tetanic contraction force): 35%
- inhibition at 3 µM (read-out: inhibition of twitch contraction force): 72%
- increase in basal stress in response to caffeine (R2509C soleus, 3 μM Cpd1, caffeine 20 mM): 0.5836 and 0.5932 and 0.4496 and 0.3389 and 0.4718
- effect on caffeine-induced contracture tension (R2509C soleus, pretreatment 3 µM, 20 mM caffeine): decreased
- effect on heat-induced contracture (R2509C soleus, pretreatment 3 µM, 42 °C): significantly reduced
